What is called IC50 is the concentration that gives 50% inhibition.

Holding throughout (type): cell-based
One assay concerns the target NR1/NR2A (Rattus norvegicus, UniProt P35439+Q00959). Put plainly: Two electrode voltage clamp, Xenopus oocytes expressing recombinant NR1/NR2A. The settings on record: for remaining activity at 100 µM: read-out: 2A percent effect at the maximum tested concentration. How it is done:
(§1) Quality of synthesized cRNA was assessed by gel electrophoresis, and quantity was estimated by spectroscopy and gel electrophoresis. Stage V and VI oocytes were surgically removed from the ovaries of large, well-fed and healthy Xenopus laevis anesthetized with 3-amino-benzoic acid ethyl ester (3 gm/l) as previously described. Clusters of isolated oocytes were incubated with 292 U/ml Worthington (Freehold, N.J.) type IV collagenase or 1.3 mg/ml collagenase (Life Technologies, Gaithersburg, MD; 17018-029) for 2 hr in Ca^2+-free solution comprised of (in mM) 115 NaCl, 2.5 KCl, and 10 HEPES, pH 7.5, with slow agitation to remove the follicular cell layer. Oocytes were then washed extensively in the same solution supplemented with 1.8 mM CaCl2 and maintained in Barth's solution comprised of (in mM): 88 NaCl, 1 KCl, 2.4 NaHCO3, 10 HEPES, 0.82 MgSO4, 0.33 Ca(NO3)2, and 0.91 CaCl2 and supplemented with 100 μg/m1 gentamycin, 10 μg/ml streptomycin, and 10 μg/ml penicillin. Oocytes were manually defolliculated and injected within 24 hrs of isolation with 3-5 ng of NR1 subunit cRNA and 7-10 ng of NR2 cRNA subunit in a 50 nl volume, or 5-10 ng of AMPA or kainate receptor cRNAs in a 50 nl volume, and incubated in Barth's solution at 18° C. for 1-7 d. Glass injection pipettes had tip sizes ranging from 10-20 microns, and were backfilled with mineral oil.
(§2) Two electrode voltage-clamp recordings were made 2-7 days post-injection as previously described. Oocytes were placed in a dual-track plexi-glass recording chamber with a single perfusion line that splits in a Y-configuration to perfuse two oocytes. Dual recordings were made at room temperature (23° C.) using two Warner OC725B two-electrode voltage clamp amplifiers, arranged as recommended by the manufacturer. Glass microelectrodes (1-10 Megaohms) were filled with 300 mM KCl (voltage electrode) or 3 M KCl (current electrode). The bath clamps communicated across silver chloride wires placed into each side of the recording chamber, both of which were assumed to be at a reference potential of 0 mV. Oocytes were perfused with a solution comprised of (in mM) 90 NaCl, 1 KCl, 10 HEPES, and 0.5 BaCl2; pH was adjusted by addition of 1-3 M NaOH of HC1 to 7.4. Oocytes were recorded under voltage clamp at −40 mV. […] In some experiments, 10 μM EDTA was obtained by adding a 1:1000 dilution of 10 mM EDTA, in order to chelate contaminant divalent ions such as Zn^2+. […] Concentration effect curves consisting of 4 to 8 concentrations were obtained in this manner. The baseline leak current at −40 mV was measured before and after recording, and the full recording linearly corrected for any change in leak current. […] Each experiment consisted of recordings from 3 to 10 oocytes obtained from a single frog. Results from multiple experiments were pooled, and the average percent responses at antagonist concentrations were fitted by the equation,
(§3) Percent Response=(100−minimum)/(1+([conc]/IC50)nH)+minimum

A further assay concerns the target NR1/NR2B (Rattus norvegicus, UniProt P35439+Q00960). Nature of the assay: Two electrode voltage clamp, Xenopus oocytes expressing recombinant NR1/NR2B. The settings on record: for remaining activity at 100 µM: read-out: 2B percent effect at the maximum tested concentration. How it is done:
as §1, §2, §3
For orientation: In two-electrode clamp one electrode senses voltage and the other passes current.

The target of another assay is NR1/NR2C (Rattus norvegicus, UniProt P35439+Q00961). Nature of the assay: Two electrode voltage clamp, Xenopus oocytes expressing recombinant NR1/NR2C. The settings on record: for remaining activity at 100 µM: read-out: 2C percent effect at the maximum tested concentration. How it is done:
as §1, §2, §3

For another assay, the target named is NR1/NR2D (Rattus norvegicus, UniProt P35439+Q62645). Put plainly: Two electrode voltage clamp, Xenopus oocytes expressing recombinant NR1/NR2D. The settings on record: for remaining activity at 100 µM: read-out: 2D percent effect at the maximum tested concentration. On the procedure: as §1, §2, §3
In the next assay the target is GluR1 (Rattus norvegicus, UniProt P19490). Put plainly: Two electrode voltage clamp, Xenopus oocytes expressing GluR1. The settings on record: read-out: GluR1 percent effect at the maximum tested concentration. On the procedure:
as §1, §2, §3

Setting [1] is: logistic fit, minimum forced to 0, read-out: 2C IC50.
The mark [2] stands for this setting: logistic fit, minimum forced to 0, read-out: 2D IC50.

Like-named read-outs stand apart in the source and are kept apart here.

Chain of NR1/NR2B (Q00960 27-1482, other chains not shown): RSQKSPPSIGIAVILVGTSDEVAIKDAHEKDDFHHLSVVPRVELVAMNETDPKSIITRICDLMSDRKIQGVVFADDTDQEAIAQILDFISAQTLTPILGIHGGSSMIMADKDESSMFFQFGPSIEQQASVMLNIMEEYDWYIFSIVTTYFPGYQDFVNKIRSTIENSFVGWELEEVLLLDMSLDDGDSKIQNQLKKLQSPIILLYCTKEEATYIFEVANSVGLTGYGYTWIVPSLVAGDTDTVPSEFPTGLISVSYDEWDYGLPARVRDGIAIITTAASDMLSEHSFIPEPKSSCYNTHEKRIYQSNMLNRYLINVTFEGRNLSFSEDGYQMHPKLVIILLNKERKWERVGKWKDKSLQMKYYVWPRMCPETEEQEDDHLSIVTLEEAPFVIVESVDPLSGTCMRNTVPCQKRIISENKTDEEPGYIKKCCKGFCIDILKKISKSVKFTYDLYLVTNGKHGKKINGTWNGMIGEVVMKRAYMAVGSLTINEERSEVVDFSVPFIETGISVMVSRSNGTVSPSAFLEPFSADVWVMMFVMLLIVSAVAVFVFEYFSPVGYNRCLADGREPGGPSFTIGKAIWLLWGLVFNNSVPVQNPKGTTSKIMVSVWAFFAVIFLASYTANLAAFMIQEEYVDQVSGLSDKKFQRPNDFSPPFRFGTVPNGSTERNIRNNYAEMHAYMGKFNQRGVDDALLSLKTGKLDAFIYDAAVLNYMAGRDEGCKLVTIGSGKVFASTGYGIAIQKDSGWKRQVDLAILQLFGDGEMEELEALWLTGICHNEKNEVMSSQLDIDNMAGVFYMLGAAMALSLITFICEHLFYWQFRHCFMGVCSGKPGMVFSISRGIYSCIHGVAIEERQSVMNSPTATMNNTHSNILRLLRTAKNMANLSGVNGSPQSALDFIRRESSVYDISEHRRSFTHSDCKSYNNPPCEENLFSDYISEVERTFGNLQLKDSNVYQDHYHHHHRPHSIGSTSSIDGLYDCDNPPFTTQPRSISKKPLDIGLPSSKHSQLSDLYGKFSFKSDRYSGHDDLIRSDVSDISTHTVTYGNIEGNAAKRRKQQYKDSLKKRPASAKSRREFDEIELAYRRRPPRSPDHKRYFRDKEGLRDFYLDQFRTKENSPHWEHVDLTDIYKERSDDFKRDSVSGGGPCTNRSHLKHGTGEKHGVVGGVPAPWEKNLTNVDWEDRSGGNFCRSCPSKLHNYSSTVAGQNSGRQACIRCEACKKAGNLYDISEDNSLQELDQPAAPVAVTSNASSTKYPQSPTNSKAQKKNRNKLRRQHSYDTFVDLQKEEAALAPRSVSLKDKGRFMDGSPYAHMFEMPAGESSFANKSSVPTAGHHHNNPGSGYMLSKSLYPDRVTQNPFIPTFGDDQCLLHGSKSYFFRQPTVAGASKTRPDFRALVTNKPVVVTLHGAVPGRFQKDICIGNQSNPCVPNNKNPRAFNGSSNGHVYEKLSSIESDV
Chain of NR1/NR2A (Q00959 23-1464, other chains not shown): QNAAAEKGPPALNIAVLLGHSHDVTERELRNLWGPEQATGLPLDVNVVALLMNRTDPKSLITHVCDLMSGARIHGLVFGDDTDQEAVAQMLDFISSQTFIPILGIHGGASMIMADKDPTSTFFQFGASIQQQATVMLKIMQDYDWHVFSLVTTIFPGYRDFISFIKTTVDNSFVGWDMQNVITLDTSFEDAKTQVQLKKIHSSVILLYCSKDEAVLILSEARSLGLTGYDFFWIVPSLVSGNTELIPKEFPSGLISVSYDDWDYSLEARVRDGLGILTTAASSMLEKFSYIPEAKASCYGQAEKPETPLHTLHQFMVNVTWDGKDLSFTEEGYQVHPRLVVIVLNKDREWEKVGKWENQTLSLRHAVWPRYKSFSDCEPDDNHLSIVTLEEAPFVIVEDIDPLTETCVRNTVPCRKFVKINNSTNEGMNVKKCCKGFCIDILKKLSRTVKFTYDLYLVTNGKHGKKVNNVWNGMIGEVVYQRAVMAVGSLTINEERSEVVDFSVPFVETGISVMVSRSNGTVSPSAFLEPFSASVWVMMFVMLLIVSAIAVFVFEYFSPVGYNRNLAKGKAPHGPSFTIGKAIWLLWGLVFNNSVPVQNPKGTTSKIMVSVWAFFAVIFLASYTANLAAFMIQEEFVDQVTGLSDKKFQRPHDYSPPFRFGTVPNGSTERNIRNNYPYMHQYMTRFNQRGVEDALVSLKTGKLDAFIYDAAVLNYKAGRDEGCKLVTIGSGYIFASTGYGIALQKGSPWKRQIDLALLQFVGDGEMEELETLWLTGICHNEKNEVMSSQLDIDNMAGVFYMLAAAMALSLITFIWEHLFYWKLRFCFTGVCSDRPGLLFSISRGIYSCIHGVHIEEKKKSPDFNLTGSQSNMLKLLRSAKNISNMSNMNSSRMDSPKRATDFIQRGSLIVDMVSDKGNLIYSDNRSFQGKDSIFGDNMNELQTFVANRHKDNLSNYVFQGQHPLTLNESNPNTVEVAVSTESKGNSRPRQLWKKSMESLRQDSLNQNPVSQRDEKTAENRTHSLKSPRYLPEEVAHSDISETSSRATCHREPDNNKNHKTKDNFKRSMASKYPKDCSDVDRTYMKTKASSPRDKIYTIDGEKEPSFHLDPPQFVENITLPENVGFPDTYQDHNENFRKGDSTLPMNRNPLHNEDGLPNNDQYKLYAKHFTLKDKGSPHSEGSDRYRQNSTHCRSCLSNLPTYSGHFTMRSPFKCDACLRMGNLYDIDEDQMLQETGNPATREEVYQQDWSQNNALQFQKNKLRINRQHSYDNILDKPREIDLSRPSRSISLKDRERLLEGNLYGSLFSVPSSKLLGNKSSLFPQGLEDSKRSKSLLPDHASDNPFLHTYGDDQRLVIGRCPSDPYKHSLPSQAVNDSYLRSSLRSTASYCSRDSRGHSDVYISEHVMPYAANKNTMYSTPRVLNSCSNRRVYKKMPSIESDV
Chain of NR1/NR2D (Q62645 28-1323, other chains not shown): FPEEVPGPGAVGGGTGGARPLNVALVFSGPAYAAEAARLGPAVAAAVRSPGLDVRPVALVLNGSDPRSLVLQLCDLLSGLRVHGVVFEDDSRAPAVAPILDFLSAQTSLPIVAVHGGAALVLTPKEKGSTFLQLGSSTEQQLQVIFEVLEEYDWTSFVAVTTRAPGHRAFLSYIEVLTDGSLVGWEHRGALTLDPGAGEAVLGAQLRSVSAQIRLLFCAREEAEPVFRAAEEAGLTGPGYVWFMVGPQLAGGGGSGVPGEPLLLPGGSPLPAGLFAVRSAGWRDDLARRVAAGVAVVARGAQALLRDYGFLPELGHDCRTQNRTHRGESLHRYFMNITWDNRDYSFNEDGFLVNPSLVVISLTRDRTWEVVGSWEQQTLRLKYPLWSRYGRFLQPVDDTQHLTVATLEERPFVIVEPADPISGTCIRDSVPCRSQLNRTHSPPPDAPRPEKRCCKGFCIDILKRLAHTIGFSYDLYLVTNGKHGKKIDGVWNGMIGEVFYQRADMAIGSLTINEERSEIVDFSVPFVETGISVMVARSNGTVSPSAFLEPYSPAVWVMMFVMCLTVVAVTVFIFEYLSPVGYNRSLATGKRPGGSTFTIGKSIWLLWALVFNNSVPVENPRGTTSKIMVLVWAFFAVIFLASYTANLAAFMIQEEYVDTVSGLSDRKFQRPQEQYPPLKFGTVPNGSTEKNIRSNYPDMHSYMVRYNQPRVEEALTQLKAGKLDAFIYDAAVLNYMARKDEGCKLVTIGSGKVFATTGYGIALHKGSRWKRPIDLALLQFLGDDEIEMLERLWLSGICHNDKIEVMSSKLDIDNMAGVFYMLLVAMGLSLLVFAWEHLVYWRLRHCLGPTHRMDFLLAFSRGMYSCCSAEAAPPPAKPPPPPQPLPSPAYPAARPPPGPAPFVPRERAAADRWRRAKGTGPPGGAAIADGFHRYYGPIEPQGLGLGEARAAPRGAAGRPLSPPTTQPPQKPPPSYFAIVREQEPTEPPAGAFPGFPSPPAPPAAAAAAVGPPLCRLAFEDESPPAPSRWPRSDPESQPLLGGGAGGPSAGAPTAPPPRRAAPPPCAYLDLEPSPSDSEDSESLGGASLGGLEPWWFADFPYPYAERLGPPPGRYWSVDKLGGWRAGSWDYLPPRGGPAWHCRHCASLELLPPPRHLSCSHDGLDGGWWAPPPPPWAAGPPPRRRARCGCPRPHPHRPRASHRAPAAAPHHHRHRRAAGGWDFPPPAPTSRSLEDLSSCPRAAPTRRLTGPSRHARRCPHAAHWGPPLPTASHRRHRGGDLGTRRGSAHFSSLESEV
Chain of GluR1 (P19490 19-907): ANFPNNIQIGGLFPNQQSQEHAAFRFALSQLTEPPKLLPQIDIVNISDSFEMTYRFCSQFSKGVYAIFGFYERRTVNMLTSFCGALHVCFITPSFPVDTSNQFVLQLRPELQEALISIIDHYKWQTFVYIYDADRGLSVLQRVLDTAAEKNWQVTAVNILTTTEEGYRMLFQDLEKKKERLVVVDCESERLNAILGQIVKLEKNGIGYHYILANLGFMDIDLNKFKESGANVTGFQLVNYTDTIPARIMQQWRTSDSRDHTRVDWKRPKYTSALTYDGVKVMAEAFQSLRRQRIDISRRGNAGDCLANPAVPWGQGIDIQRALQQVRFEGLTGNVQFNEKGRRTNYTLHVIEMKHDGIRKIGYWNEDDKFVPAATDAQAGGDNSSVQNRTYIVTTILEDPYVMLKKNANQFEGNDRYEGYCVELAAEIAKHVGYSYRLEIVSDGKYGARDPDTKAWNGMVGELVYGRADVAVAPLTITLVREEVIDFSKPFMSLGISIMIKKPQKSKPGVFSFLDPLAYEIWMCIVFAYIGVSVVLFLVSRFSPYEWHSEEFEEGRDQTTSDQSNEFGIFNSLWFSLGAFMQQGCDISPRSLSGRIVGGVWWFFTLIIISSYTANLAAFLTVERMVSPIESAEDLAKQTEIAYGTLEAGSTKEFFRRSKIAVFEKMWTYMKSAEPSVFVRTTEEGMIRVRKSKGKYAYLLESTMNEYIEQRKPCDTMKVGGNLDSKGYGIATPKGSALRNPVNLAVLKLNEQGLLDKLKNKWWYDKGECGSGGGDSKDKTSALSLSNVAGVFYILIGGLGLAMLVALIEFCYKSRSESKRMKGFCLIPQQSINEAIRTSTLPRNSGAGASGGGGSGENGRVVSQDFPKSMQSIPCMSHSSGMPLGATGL

As for `CCN(CC)C(=O)Oc1ccc(C(=O)Nc2cccc3cc[nH]c23)cc1` [1063-20], the IC50 at NR1/NR2A was 2420 µM; at NR1/NR2B it was 933 µM; at NR1/NR2C it was 5 µM; at NR1/NR2D it was 3 µM. Also, the remaining activity at 100 µM on GluR1 came to 92%.
For the compound `C=CCN(CC=C)C(=O)Oc1ccc(C(=O)Nc2cccc3ccccc23)cc1` [1063-5], the remaining activity at 100 µM worked out at 104% at NR1/NR2A and 103% on GluR1. Also, the IC50 on NR1/NR2B stood at 719 µM; at NR1/NR2C it was 42 µM; at NR1/NR2D it was 28 µM.
For `CCN(CC)C(=O)Oc1ccc(C(=O)Nc2cc(C)cc3c(C)c[nH]c23)cc1` [1063-34] the same measures were 71%, 85%, 365 µM, 102 µM and 93 µM.
Take `CCN(CC)C(=O)Oc1ccc(C(=O)Nc2cccc3ccccc23)cc1` [1063-2]: the IC50 on NR1/NR2A was found to be 433 µM; at NR1/NR2B it was 141 µM; on NR1/NR2C, 6 µM; on NR1/NR2D, 4 µM. Besides, the remaining activity at 100 µM on GluR1 came out at 118%.
As for `CCN(CC)C(=S)Oc1ccc(C(=O)Nc2ccc(Cl)c3ccccc23)cc1` [1063-12], the remaining activity at 100 µM at NR1/NR2A (at 100 μM) is 92%; at NR1/NR2B (at 100 μM), 80%. Also, the IC50 on NR1/NR2C (setting [1]) was 25 µM; on NR1/NR2D (setting [2]) it was 100 µM.
Consider `CCC(CC)C(=O)Oc1ccc(C(=O)Nc2cccc3ccccc23)cc1` [1063-9], for which the remaining activity at 100 µM on NR1/NR2A (at 100 μM) stood at 111%; on NR1/NR2B (at 100 μM), 98%; at NR1/NR2C (at 100 μM), 94%; at NR1/NR2D (at 100 μM) it was 86%.
For `CC(C)N(C(=O)Oc1ccc(C(=O)Oc2ccc3cccc(N)c3c2)cc1)C(C)C` [1063-13], the values for the remaining activity at 100 µM at NR1/NR2A, on NR1/NR2B and on GluR1 were 89%, 84% and 117%, respectively. The half-inhibitory concentration (IC50) at NR1/NR2C was 385 µM; on NR1/NR2D it was 55 µM.
Regarding `CCN(CC)C(=O)Oc1ccc(C(=O)Nc2cc(C(=O)OC)cc3c(C)c[nH]c23)cc1` [1063-35], the IC50 on NR1/NR2A worked out at 177 µM; on NR1/NR2B it was 238 µM. The remaining activity at 100 µM is 77% on NR1/NR2C, 80% at NR1/NR2D and 97% on GluR1.
With `CCN(CC)C(=S)Oc1ccc(C(=O)Nc2cccc3cc[nH]c23)cc1` [1063-21], the remaining activity at 100 µM on NR1/NR2A (at 100 μM) worked out at 94%; on NR1/NR2B (at 100 μM), 78%; at GluR1 (at 100 μM), 102%. Besides, the IC50 on NR1/NR2C (setting [1]) worked out at 15 µM; on NR1/NR2D (setting [2]) it was 4 µM.
On to `CC(C)N(C(=O)Oc1ccc(C(=O)Nc2cccc3ccccc23)cc1)C(C)C` [1063-4], for which the IC50 stood at 874 µM on NR1/NR2A, 158 µM on NR1/NR2B, 8 µM at NR1/NR2C and 5 µM on NR1/NR2D. Also, on GluR1, the remaining activity at 100 µM stood at 130%.
With `CCN(CC)C(=O)Oc1ccccc1C(=O)Nc1cccc2ccccc12` [1063-25], the remaining activity at 100 µM was determined as 88% on NR1/NR2A (at 100 μM), 88% at NR1/NR2B (at 100 μM), 83% at NR1/NR2C (at 100 μM) and 91% at NR1/NR2D (at 100 μM).
As to `O=C(Nc1cccc2ccccc12)c1ccc(Oc2nc(-c3ccccc3)cs2)cc1` [1063-22], the remaining activity at 100 µM on NR1/NR2A (at 100 μM) was 96%; on NR1/NR2B (at 100 μM) it was 91%; at NR1/NR2C (at 100 μM), 92%; at NR1/NR2D (at 100 μM), 88%.
For `CCN(CC)C(=O)Oc1ccc(C(=O)Nc2cccc3[nH]ccc23)cc1` [1063-26], the remaining activity at 100 µM on NR1/NR2A was found to be 88%. Moreover, the IC50 at NR1/NR2B was found to be 560 µM; on NR1/NR2C, 8 µM; on NR1/NR2D, 6 µM.
With `CC(C)N(C(=O)Oc1ccc(C(=O)Nc2ccc3cc[nH]c3c2)cc1)C(C)C` [1063-15], the remaining activity at 100 µM at NR1/NR2A is 74%. Besides, the IC50 is 44 µM at NR1/NR2B, 11 µM on NR1/NR2C and 12 µM at NR1/NR2D.

The record behind these values is US20110319416A1, “Subunit Selective NMDA Receptor Antagonists For The Treatment Of Neurological Conditions” (EMORY UNIVERSITY, priority 2009, published 2011).
